{
  "source": "patent US10160867B2",
  "about": "“Benzoxaborole-containing coating resistant to cellulose-supportable fungus” (THE PENN STATE RESEARCH FOUNDATION, priority 2015, dated 2018)",
  "format_in_all_cases": "cell-based",
  "key": {"Alternaria alternata": {"test_system": "Alternaria alternata", "assay": "3 day MIC, broth microdilution in 25% PDB", "conditions": "72 h, 25% PDB, read-out: 3 day MIC", "protocol": "(§1) Stock solutions (concentrations of between 4,000 μg/mL to 10,000 μg/mL; stored at −18° C.) of the above antifungals were prepared in dimethyl sulfoxide (DMSO). The stock solutions were further diluted into sterile 25% potato dextrose broth (PDB) so that the diluted solutions could be used for the antifungal susceptibility studies. This way, a typical microdilution study would reach a final ratio of about 0.5-2% v/v of DMSO in 25% PDB.\n(§2) Spore inocula were prepared in sterile distilled water with 0.1% Tween® 20 (a polysorbate surfactant), and a hemocytometer was used to determine the spore density. Typically, the spore inoculum was prepared fresh prior to each study, and the inoculum was appropriately diluted to a final concentration of 0.4-1×10^5 spores/mL or colony-forming unit (CFU)/mL in each study. The spore suspension can be stored in a refrigerator at 4° C. for up to one week.\n(§3) The studies were performed in flat bottom, 96-well microtiter plates (Greiner Bio-One, Frickenhausen, Germany).\n(§4) Plates sealed with clear polyester film (VWR, Radnor, Pa.) were incubated at a temperature of about 25° C. The progress of fungal growth was monitored at 48 hours and 72 hours."}, "Stachybotrys chartarum [1]": {"test_system": "Stachybotrys chartarum", "assay": "3 day MIC, broth microdilution in 25% PDB", "conditions": "72 h, 25% PDB, read-out: 3 day MIC", "protocol": "as §1, §2, §3, §4"}, "Aspergillus flavus": {"test_system": "Aspergillus flavus", "assay": "3 day MIC, broth microdilution in 25% PDB", "conditions": "72 h", "protocol": "as §1, §2\n(§5) The minimal inhibitory concentrations (MICs) for individual antifungal agents were determined by following a modified broth microdilution protocol CLSI (Clinical and Laboratory Standards Institute) M38-A2 [Clinical and Laboratory Standards Institute (2008) Reference method for broth dilution antifungal susceptibility testing of filamentous fungi—2nd edition: Approved Standard M38-A2, CLSI, Wayne, Pa.] where 25% potato dextrose broth (PDB) was used as the medium. The studies were performed in flat bottom, 96-well microtiter plates (Greiner Bio-One, Frickenhausen, Germany).\nas §4"}, "Aspergillus fumigatus": {"test_system": "Aspergillus fumigatus", "assay": "3 day MIC, broth microdilution in 25% PDB", "conditions": "72 h", "protocol": "as §1, §2, §5, §4"}, "Aspergillus niger": {"test_system": "Aspergillus niger", "assay": "3 day MIC, broth microdilution in 25% PDB", "conditions": "72 h", "protocol": "as §1, §2, §5, §4"}, "Aureobasidium pullulans": {"test_system": "Aureobasidium pullulans", "assay": "3 day MIC, broth microdilution in 25% PDB", "conditions": "72 h", "protocol": "as §1, §2, §5, §4"}, "Fusarium oxysparum ST-33": {"test_system": "Fusarium oxysparum ST-33", "assay": "3 day MIC, broth microdilution in 25% PDB", "conditions": "ST33, 72 h", "protocol": "as §1, §2, §5, §4"}, "Mucor spp.": {"test_system": "Mucor spp.", "assay": "3 day MIC, broth microdilution in 25% PDB", "conditions": "72 h", "protocol": "as §1, §2, §5, §4"}, "Rhizopus spp.": {"test_system": "Rhizopus spp.", "assay": "3 day MIC, broth microdilution in 25% PDB", "conditions": "72 h", "protocol": "as §1, §2, §5, §4"}, "Stachybotrys chartarum [2]": {"test_system": "Stachybotrys chartarum", "assay": "Fungus resistance test after painting over fungal growth (defacement rating)", "conditions": "painting over contaminated surfaces; paints containing 100 μg/mL; after 7 days", "source_text": "In this series of experiments, fungal growth was allowed to cover a painted surface (surface containing 2 coats of the unaltered paint) to a defacement rating of 3-5, forming a ‘contaminated surface’. […] The paint application was extended approximately 1-2 cm beyond the edge of the disc onto the NSA medium. Each formulation used a separate brush to avoid cross contamination. The re-painted discs were placed back into the humid environment with elevated temperature to encourage fungal growth.\nThis test was used to evaluate the ability of paint films containing antifungal additives to prevent the re-emergence of fungal growth after painting over existing growth.\nOlympic® Home interior flat latex paint (PPG Industries, Pittsburgh, Pa.) and Valspar® QuikHide White flat interior paint (Valspar Corporation, Minneapolis, Minn.) were used for the experiments in this study unless specified. Stock solutions of the antifungal additives of interest were prepared in reagent grade dimethyl sulfoxide (DMSO; Alfa Aesar, Ward Hill, Mass.). Additives were spiked (by adding appropriate amounts of the antifungal stock solutions) into the liquid paint at specified concentrations. Samples of additive-spiked paint were vigorously mixed with a vortex mixer for at least one minute to insure uniform dispersion of the additive in the paint. […] Studies that used other brands of paint followed the same protocol as described for those using the Olympic® Home interior flat latex paint.\nTest surfaces were prepared in triplicate. In most cases, the tested conditions were repeated on a different date, again in triplicate. […] Two coats of paint were applied with a polyester brush to completely cover both faces of the filter paper disc, allowing at least four hours drying time between coats.\nNutrient-Salts Agar (NSA) media was prepared according to ASTM method G21-13 in 100×15 mm sterile polystyrene petri dishes (VWR® Radnor, Pa.) with a solidified agar layer from 3 to 6 mm (⅛ to ¼ in.) in depth. The agar was allowed to solidify for at least 24 hours before being used. The painted test filter paper discs were placed in the center of the agar plates in a biosafety hood while wearing clean nitrile gloves.\nThe paint coatings were evaluated against three representative fungi: Stachybotrys chartarum, Penicillium chrysogenum, and Alternaria alternata. […] Fungal isolates of Alternaria alternata and Penicillium chrysogenum were obtained from the Plant Pathology and Environmental Microbiology Department at Penn State University.\nA spore suspension of each of these fungi was prepared by pouring a 20-mL portion of autoclaved deionized water containing 0.01% Tween® 20 onto a subculture of each fungal species. Spores were counted with the use of a hemocytometer (Hausser Scientific, Horsham, Pa.) under a microscope. Spore suspensions of Stachybotrys chartarum and Penicillium chrysogenum were diluted to 1×10^6 spores/mL with autoclaved deionized water. Spore suspensions of Alternaria alternata were used “as is” in the range of 200,000 to 400,000 spores/mL.\nPainted test surfaces were inoculated with a spray bottle or with a cotton-tipped applicator. To inoculate the sample with a spray bottle, the spore suspension was sprayed twice on the painted test discs with a spray bottle that delivered approximately 0.14 g of fluid per spray. To inoculate the sample with a cotton-tipped applicator, an autoclaved cotton-tipped applicator was submerged in approximately 400 μL of the inoculum solution and applied evenly over the surface of the painted test surface twice."}, "[3]": {"test_system": "Penicillium brevicompactum", "assay": "3 day MIC, broth microdilution in 25% PDB", "conditions": "72 h, 25% PDB, read-out: 3 day MIC", "protocol": "as §1, §2, §3, §4"}, "Penicillium chrysogenum": {"test_system": "Penicillium chrysogenum", "assay": "3 day MIC, broth microdilution in 25% PDB", "conditions": "72 h, 25% PDB, read-out: 3 day MIC", "protocol": "as §1, §2, §3, §4"}, "Penicillium corylophilum": {"test_system": "Penicillium corylophilum", "assay": "3 day MIC, broth microdilution in 25% PDB", "conditions": "72 h, 25% PDB, read-out: 3 day MIC", "protocol": "as §1, §2, §3, §4"}, "Penicillium purpurogenum": {"test_system": "Penicillium purpurogenum", "assay": "3 day MIC, broth microdilution in 25% PDB", "conditions": "72 h; Penicillium purpurogenum; 25% PDB; read-out: 3 day MIC", "protocol": "as §1, §2, §3, §4"}},
  "data": [
    {"molecule": "Nc1ccc2c(c1)COB2O", "note": "[Compound B6, 5-Amino-1,3-dihydro-2,1-benzoxaborol-1-ol]", "values": [
      {"measurement": "MIC", "setting": "Alternaria alternata", "result": 200, "unit": "µg/mL"},
      {"measurement": "MIC", "setting": "Stachybotrys chartarum [1]", "result": 64, "unit": "µg/mL"},
      {"measurement": "MIC", "setting": "Aspergillus flavus", "result": "> 64", "unit": "µg/mL"},
      {"measurement": "MIC", "setting": "Aspergillus fumigatus", "result": "> 64", "unit": "µg/mL"},
      {"measurement": "MIC", "setting": "Aspergillus niger", "result": "> 64", "unit": "µg/mL"},
      {"measurement": "MIC", "setting": "Aureobasidium pullulans", "result": "> 64", "unit": "µg/mL"},
      {"measurement": "MIC", "setting": "Fusarium oxysparum ST-33", "result": "> 64", "unit": "µg/mL"},
      {"measurement": "MIC", "setting": "Mucor spp.", "result": "> 64", "unit": "µg/mL"},
      {"measurement": "MIC", "setting": "Rhizopus spp.", "result": "> 64", "unit": "µg/mL"},
      {"measurement": "ability to inhibit Stachybotrys chartarum re-emergence on the surfaces", "setting": "Stachybotrys chartarum [2]", "result": "very little ability to inhibit"}
    ]},
    {"molecule": "Nc1ccc2c(c1)B(O)OCC2", "note": "[Compound B7, 7-amino-3,4-dihydro-1H-2,1-benzoxaborinin-1-ol]", "values": [
      {"measurement": "MIC", "setting": "Alternaria alternata", "result": "> 200", "unit": "µg/mL"},
      {"measurement": "MIC", "setting": "Stachybotrys chartarum [1]", "result": 25, "unit": "µg/mL"},
      {"measurement": "ability to inhibit Stachybotrys chartarum re-emergence on the surfaces", "setting": "Stachybotrys chartarum [2]", "result": "very little ability to inhibit"}
    ]},
    {"molecule": "O=C(O)c1ccc2c(c1)COB2O", "note": "[Compound B10, 1-hydroxy-1,3-dihydro-2,1-benzoxaborole-5-carboxylic acid]", "values": [
      {"measurement": "MIC", "setting": "Alternaria alternata", "result": 200, "unit": "µg/mL"},
      {"measurement": "MIC", "setting": "[3]", "result": "> 200", "unit": "µg/mL"},
      {"measurement": "MIC", "setting": "Penicillium chrysogenum", "result": "> 200", "unit": "µg/mL"},
      {"measurement": "MIC", "setting": "Penicillium corylophilum", "result": "> 200", "unit": "µg/mL"},
      {"measurement": "MIC", "setting": "Penicillium purpurogenum", "result": "> 200", "unit": "µg/mL"},
      {"measurement": "MIC", "setting": "Stachybotrys chartarum [1]", "result": 100, "unit": "µg/mL"}
    ]},
    {"molecule": "N#Cc1ccc2c(c1)COB2O", "note": "[Compound B11, 1-hydroxy-1,3-dihydro-2,1-benzoxaborole-5-carbonitirile]", "values": [
      {"measurement": "MIC", "setting": "Alternaria alternata", "result": 100, "unit": "µg/mL"},
      {"measurement": "MIC", "setting": "[3]", "result": 50, "unit": "µg/mL"},
      {"measurement": "MIC", "setting": "Penicillium chrysogenum", "result": 100, "unit": "µg/mL"},
      {"measurement": "MIC", "setting": "Penicillium corylophilum", "result": 100, "unit": "µg/mL"},
      {"measurement": "MIC", "setting": "Penicillium purpurogenum", "result": 25, "unit": "µg/mL"},
      {"measurement": "MIC", "setting": "Stachybotrys chartarum [1]", "result": 12.5, "unit": "µg/mL"}
    ]}
  ]
}
